Reference: US20070129252A1, “2-Halo-6-alkylphenyl-substituted spirocyclic tetramic acid derivatives” (BAYER CROPSCIENCE AKTIENGESELLSCHAFT, priority 2003, published 2007)

Key:
Format in all cases: in vivo
Meloidogyne incognita = test: Meloidogyne test; details: 20 ppm; formation of galls on lettuce roots
Method: To produce a suitable preparation of active compound, 1 part by weight of active compound is mixed with the stated amounts of solvent and emulsifier, and the concentrate is diluted with water to the desired concentration.
Vessels are filled with sand, solution of active compound, Meloidogyne incognita egg/larvae suspension and lettuce seeds. The lettuce seeds germinate and the plants develop. On the roots, galls develop.
After the desired period of time, the nematicidal action is determined in % by the formation of galls. 100% means that no galls have been found; 0% means that the number of galls on the treated plants corresponds to that of the untreated control.

Myzus persicae [1] = test: Myzus test (dip treatment); details: cabbage leaves
Method: Myzus Test (Dip Treatment)
(§1) To produce a suitable preparation of active compound, 1 part by weight of active compound is mixed with the stated amounts of solvent and emulsifier, and the concentrate is diluted with emulsifier-containing water to the desired concentration.
Cabbage leaves (Brassica oleracea), which are heavily infested by the green peach aphid Myzus persicae), are treated by being dipped into the preparation of active compound of the desired concentration.
(§2) After the desired period of time, the kill in % is determined. 100% means that all aphids have been killed; 0% means that none of the aphids have been killed.

Sinapis = test: Herbicidal pre-emergence action (Example L); details: greenhouse, 320 g of a.i./ha, 3 weeks
Text: (§3) Herbicidal Pre-Emergence Action
(§4) Seeds of monocotyledonous and dicotyledonous weed and crop plants are placed into sandy loam in wood fibre pots and covered with soil. The test compounds, formulated in the form of wettable powders (WP), are then, in various dosages as aqueous suspension with a water application rate of 600 l/ha (converted), with 0.2% of wetting agent added, applied to the surface of the covering soil.
(§5) After the treatment, the pots are placed in a greenhouse and kept under good growth conditions for the test plants. The visual assessment of the emergence damage on the test plants is carried out after a trial period of 3 weeks by comparison with untreated controls (herbicidal effect in percent (%): 100% effect=the plants have died, 0% effect=like control plants).

Stellaria = test: Herbicidal pre-emergence action (Example L); details: greenhouse, 320 g of a.i./ha, 3 weeks
Text: as §3, §4, §5

Lolium [2] = test: Herbicidal pre-emergence action (Example L); details: greenhouse, 320 g of a.i./ha, 3 weeks
Text: as §3, §4, §5

Setaria [3] = test: Herbicidal pre-emergence action (Example L); details: greenhouse, 320 g of a.i./ha, 3 weeks
Text: as §3, §4, §5

Avena sativa [4] = test: Herbicidal pre-emergence action (Example L); details: greenhouse, 320 g of a.i./ha, 3 weeks
Text: as §3, §4, §5

Myzus persicae [5] = test: Myzus test (spray treatment); details: 100 g/ha, Chinese cabbage discs
Method: Myzus Test (Spray Treatment)
as §1
Discs of Chinese cabbage (Brassica pekinensis), which are infested by all stages of the green peach aphid (Myzus persicae), are sprayed with a preparation of active compound of the desired concentration.
After the desired period of time, the effect in % is determined. 100% means that all aphids have been killed; 0% means that none of the aphids have been killed.

Lolium [6] = test: Herbicidal post-emergence action (Example M); details: greenhouse, 320 g of a.i./ha, about 3 weeks
Method: (§6) Herbicidal Post-Emergence Action
(§7) Seeds of monocotyledonous and dicotyledonous weed and crop plants are placed into sandy loam in wood fibre pots, covered with soil and cultivated in a greenhouse under good growth conditions. 2-3 weeks after sowing, the test plants are treated at the one-leaf stage. The test compounds, formulated as wettable powders (WP), are, in various dosages with a water application rate of 600 l/ha (converted), with 0.2% of wetting agent added, sprayed onto the green parts of the plants. After the test plants were kept in the greenhouse under optimum growth conditions for about 3 weeks, the effect of the preparations is rated visually in comparison to untreated controls (herbicidal effect in percent (%): 100% effect=the plants have died, 0% effect=like control plants).

Setaria [7] = test: Herbicidal post-emergence action (Example M); details: greenhouse, 320 g of a.i./ha, about 3 weeks
Method: as §6, §7

Avena sativa [8] = test: Herbicidal post-emergence action (Example M); details: greenhouse, 320 g of a.i./ha, about 3 weeks
Method: as §6, §7

Phaedon cochleariae = test: Phaedon larvae test (dip treatment); details: 500 ppm, cabbage leaves
Method: Phaedon Larvae Test (Dip Treatment) [[[…]]] To produce a suitable preparation of active compound, 1 part by weight of active compound is mixed with the stated amounts of solvent and emulsifier, and the concentrate is diluted with emulsifier-containing water to the desired concentration. Cabbage leaves (Brassica oleracea) are treated by being dipped into the preparation of active compound of the desired concentration and are populated with larvae of the mustard beetle (Phaedon cochleariae) while the leaves are still moist.

sugarbeets [9] = test: Pre-emergence test (Example K); details: greenhouse, 30 g of a.i./ha, after three weeks
Method: (§8) To produce a suitable preparation of active compound, 1 part by weight of active compound is mixed with the stated amount of solvent, the stated amount of emulsifier is added and the concentrate is diluted with water to the desired concentration.
(§9) Seeds of the test plants are sown in normal soil. After about 24 hours, the soil is sprayed with the preparation of active compound such that the particular amounts of active compound desired are applied per unit area. The concentration of the spray liquor is chosen such that the particular amounts of active compound desired are applied in 1000 l of water/ha.
(§10) After three weeks, the degree of damage to the plants is rated in % damage in comparison to the development of the untreated control.
(§11) 0%=no effect (like untreated control)

Echinochloa [10] = test: Pre-emergence test (Example K); details: greenhouse, 30 g of a.i./ha, after three weeks
Method: as §8, §9, §10, §11

Lolium [11] = test: Pre-emergence test (Example K); details: greenhouse, 30 g of a.i./ha, after three weeks
Method: as §8, §9, §10, §11

Setaria [12] = test: Pre-emergence test (Example K); details: greenhouse, 30 g of a.i./ha, after three weeks
Method: as §8, §9, §10, §11

sugarbeets [13] = test: Post-emergence test (Example J); details: greenhouse, 60 g of a.i./ha, after three weeks
Method: as §8
as §9, with “Test plants” for “Seeds”, “a height of 5-15 cm” for “the test plants”, “are” for “are sown in normal soil. After about 24 hours, the soil is”
(§12) After three weeks, the degree of damage in the plants is rated in % damage in comparison to the development of the untreated control.
as §11

Echinochloa [14] = test: Post-emergence test (Example J); details: greenhouse, 60 g of a.i./ha, after three weeks
Method: as §8
as §9, with “Test plants” for “Seeds”, “a height of 5-15 cm” for “the test plants”, “are” for “are sown in normal soil. After about 24 hours, the soil is”
as §12, §11

Lolium [15] = test: Post-emergence test (Example J); details: greenhouse, 60 g of a.i./ha, after three weeks
Method: as §8
as §9, with “Test plants” for “Seeds”, “a height of 5-15 cm” for “the test plants”, “are” for “are sown in normal soil. After about 24 hours, the soil is”
as §12, §11

summer wheat = test: Herbicidal post-emergence action, vessel trials with cereals in the greenhouse, use of safeners (Example N); details: without safener
Method: as §6
(§13) Seeds of monocotyledonous and dicotyledonous weed and crop plants are placed into sandy loam in wood fibre pots or in plastic pots, covered with soil and cultivated in a greenhouse, during the vegetation period also outdoors outside of the greenhouse, under good growth conditions. 2-3 weeks after sowing, the test plants are treated at the one- to three-leaf stage. The test compounds, formulated as wettable powders (WP) or emulsifiable concentrates (EC) are, in various dosages with a water application rate of 300 l/ha (converted), with wetting agent (0.2 to 0.3%) added, sprayed onto the plants and the surface of the soil. 3-4 weeks after the treatment of the test plants, the effect of the preparations is rated visually in comparison to untreated controls (herbicidal effect in percent (%): 100% effect=the plants have died, 0% effect=like control plants).
(§14) If it is additionally to be tested as to whether safeners can improve the plant compatibility of test substances in the case of crop plants, the following options are used for applying the safener: • seeds of the crop plants are, before sowing, dressed with the safener substance (the amount of safener is stated in percent, based on the weight of the seed) • before the application of the test substances, the crop plants are sprayed with the safener at a certain application rate per hectare (usually 1 day before the application of the test substances) • the safener is applied together with the test substance as a tank mix (the amount of safener is stated in g/ha or as a ratio, based on the herbicide).
(§15) By comparing the effect of the test substances on crop plants without or with safener treatment, it is possible to assess the effect of the safener substance.
(§16) Vessel Trials with Cereals in the Greenhouse
(§17) Mefenpyr applied 1 day prior to the application of herbicide

summer barley = test: as above; details: without safener
Method: as §6, §13, §14, §15, §16, §17

Tetranychus urticae = test: Tetranychus test (OP-resistant/dip treatment); details: 100 ppm; dip treatment; bean plants (Table H)
Method: Tetranychus Test (OP-Resistant/Dip Treatment)
as §1
Bean plants (Phaseolus vulgaris), which are heavily infested by all stages of the greenhouse red spider mite (Tetranychus urticae), are dipped into a preparation of active compound of the desired concentration.
After the desired period of time, the activity in % is determined. 100% means that all spider mites have been killed; 0% means that none of the spider mites have been killed.

Aphis gossypii = Aphis gossypii test; details: 500 ppm; dip treatment; cotton leaves
Method: as §1
Cotton leaves (Gossypium hirsutum), which are heavily infested by the cotton aphid (Aphis gossypii), are treated by being dipped into the preparation of active compound of the desired concentration.
as §2

Question: Which “Effect in % after 14d” value (Meloidogyne incognita) does the source give for CCc1cc(C)cc(Br)c1C1=C(O)C2(CCOCC2)NC1=O [Example I-a-1] here?
Answer: The value was 80%.

Question: And the “Kill rate in % after 6d” value (Myzus persicae [1]; 100 ppm)?
Answer: The value was 75%.

Question: And the “herbicidal effect in percent, Sinapis” value (Sinapis)?
Answer: The value was 70%.

Question: And the “herbicidal effect in percent, Stellaria” value (Stellaria)?
Answer: Its value is 100%.

Question: And the “herbicidal effect in percent, Lolium” value (Lolium [2])?
Answer: The value was 80%.

Question: And the “herbicidal effect in percent, Setaria” value (Setaria [3])?
Answer: Its value is 90%.

Question: What about the “herbicidal effect in percent, Avena sativa” value (Avena sativa [4]) of the same compound?
Answer: The value was 70%.

Question: What about the “Kill rate in % after 5d” value (Myzus persicae [5]) of the same compound?
Answer: The value was 100%.

Question: And the “herbicidal effect in percent, Lolium” value (Lolium [6])?
Answer: Its value is 100%.

Question: And the “herbicidal effect in percent, Setaria” value (Setaria [7])?
Answer: The value was 80%.

Question: What about the “herbicidal effect in percent, Avena sativa” value (Avena sativa [8]) of the same compound?
Answer: The value was 100%.

Question: CCc1cc(C)cc(Cl)c1C1=C(O)C2(CCC(OC)CC2)NC1=O (single isomer, unassigned) [Example I-a-4] was tested. Which “Kill rate in % after 7d” value (Phaedon cochleariae) did it give?
Answer: The value was 100%.

Question: And the “% damage, sugarbeets” value (sugarbeets [9])?
Answer: Its value is 0%.

Question: What about the “% damage, Echinochloa” value (Echinochloa [10]) of the same compound?
Answer: The value was 80%.

Question: What about the “% damage, Lolium” value (Lolium [11]) of the same compound?
Answer: The value was 100%.

Question: What about the “% damage, Setaria” value (Setaria [12]) of the same compound?
Answer: The value was 100%.

Question: And the “Kill rate in % after 6d” value (Myzus persicae [1]; 4 ppm)?
Answer: The value was 95%.

Question: What about the “% damage, sugarbeets” value (sugarbeets [13]) of the same compound?
Answer: Its value is 0%.

Question: What about the “% damage, Echinochloa” value (Echinochloa [14]) of the same compound?
Answer: Its value is 100%.

Question: What about the “% damage, Lolium” value (Lolium [15]) of the same compound?
Answer: The value was 100%.

Question: What about the “summer wheat observed (%)” value (summer wheat; 12.5 g of a.i./ha) of the same compound?
Answer: Its value is 50%.

Question: And the “summer wheat observed (%)” value (summer wheat; 25 g of a.i./ha)?
Answer: The value was 98%.

Question: What about the “summer barley observed (%)” value (summer barley; 12.5 g of a.i./ha) of the same compound?
Answer: The value was 10%.

Question: And the “summer barley observed (%)” value (summer barley; 25 g of a.i./ha)?
Answer: Its value is 30%.

Question: And the “summer barley observed (%)” value (summer barley; 50 g of a.i./ha)?
Answer: The value was 97%.

Question: And the “Kill rate in % after 7d” value (Tetranychus urticae)?
Answer: Its value is 99%.

Question: What about the “Kill rate in % after 6d” value (Aphis gossypii) of the same compound?
Answer: The value was 80%.
